Measured values taken from US12173018B2, “Penicillin-binding protein inhibitors” (priority 2018, dated 2024).

What was measured:
E. coli ATCC 25922 = test: Broth microdilution MIC, E. coli ATCC 25922; assay type: cell-based; settings: Escherichia coli, ATCC25922, read-out: MIC E. coli 25922
Summary of the method: (§1)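 Following CLSI guidance, growth inhibition is measured in Mueller-Hinton broth with divalent cations. Inoculum 5×10^5 CFU/mL; incubation 16-20 hours, 37° C; endpoint is visual absence of growth.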

E. coli AG100 = test: Broth microdilution MIC, E. coli AG100 (wild-type parent); assay type: cell-based; settings: Escherichia coli; wild-type parent E. coli AG100, broth microdilution; read-out: MIC E. coli AG100
Summary of the method: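 Broth microdilution in cation-supplemented Mueller-Hinton broth, 2-fold serial compound dilutions, inoculum 5×10^5 CFU/mL from 3-5 h log culture.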

E. coli 901C = test: microbe, parasite or virus in culture; assay type: cell-based; settings: Escherichia coli; hyper-permeable E. coli 901C, broth microdilution; read-out: MIC E. coli 901C
Summary of the method: as §1

E. coli AG100A = test: microbe, parasite or virus in culture; assay type: cell-based; settings: Escherichia coli, read-out: MIC E. coli AG100A
Summary of the method: as §1

E. coli D22 = test: microbe, parasite or virus in culture; assay type: cell-based; settings: Escherichia coli; hyper-permeable E. coli D22, broth microdilution; read-out: MIC E. coli D22
Summary of the method: as §1

K. pneumoniae SI-117 = test: microbe, parasite or virus in culture; assay type: cell-based; settings: Klebsiella pneumoniae, SI117, read-out: MIC K. pneumoniae SI-117
Summary of the method: as §1

K. pneumoniae UMM = test: microbe, parasite or virus in culture; assay type: cell-based; settings: Klebsiella pneumoniae; K. pneumoniae UMM producing SHV-5 and KPC-2; read-out: MIC K. pneumoniae UMM
Summary of the method: as §1

[1] = system: P. aeruginosa (ΔmexAB-oprM); test: microbe, parasite or virus in culture; assay type: cell-based; settings: Pseudomonas aeruginosa, read-out: MIC P. aeruginosa ΔmexAB-OprM
Summary of the method: as §1

P. aeruginosa ATCC 35151 = test: microbe, parasite or virus in culture; assay type: cell-based; settings: Pseudomonas aeruginosa, ATCC35151; hyper-permeable P. aeruginosa ATCC 35151; read-out: MIC P. aeruginosa ATCC 35151
Summary of the method: as §1

K. pneumoniae 848844 = test: microbe, parasite or virus in culture; assay type: cell-based, Klebsiella pneumoniae; settings: Klebsiella pneumoniae; K. pneumoniae 848844 producing SHV-11 and KPC-2; read-out: MIC K. pneumoniae 848844
Summary of the method: as §1

P. aeruginosa ATCC 27853 = test: Broth microdilution MIC, P. aeruginosa ATCC 27853; assay type: cell-based; settings: Pseudomonas aeruginosa, ATCC27853, read-out: MIC P. aeruginosa ATCC 27853
Procedure: To determine the ability of test compounds to potentiate the inhibition of the growth of bacterial strains, classic cell based broth microdilution minimum inhibitory concentration (MIC) assays were employed. MIC assays are performed according to CLSI methods except where otherwise noted (CLSI, 2011 and CLSI, 2009). The reference type strain E. coli ATCC 25922, the wild-type parent strain E. coli AG100, the hyper-permeable E. coli 901C and E. coli D22 and the E. coli AG100A strain lacking the acrAB efflux pump encoding genes were used to determine the ability of the PBP inhibitors to penetrate the outer membrane of gram-negative bacteria and inhibit bacterial growth. […] The P. aeruginosa PAO1, P. aeruginosa ATCC 27853 and A. baumannii ATCC 19606, along with the hyper-permeable P. aeruginosa ATCC 35151 and an engineered efflux pump-compromised strain of P. aeruginosa (ΔmexAB-oprM) were used to determine the ability of PBP inhibitors to penetrate the outer membrane of P. aeruginosa and A. baumannii and assess antibacterial activity against these important gram-negative organisms.
Briefly, cryo-preserved bacterial cultures of challenge strains are streaked for isolation on appropriate agar medium, in this case Mueller Hinton II agar. Following incubation to allow growth of the colonies, plates are sealed with parafilm and stored refrigerated for up to two weeks. For preparation of assay inoculum and to ensure low variability, at least 5 colonies are picked from the agar plates with an inoculating loop and aseptically transferred to a culture tube containing 3 mL of Mueller-Hinton Broth (supplemented with divalent cations to required levels based on Manufacturers' certification). The broth culture is grown for 3-5 hours at 37° C. with shaking at 200 rpm. Meanwhile, 2-fold serial dilutions of test compounds are conducted in a 96 well plate with a final volume of 75 μL per well at 2-fold the final desired concentration. After the dilution plates are set up the growing cultures are then diluted in a cuvette containing MH II broth and the optical density is measured at 600 nm. The Inoculum is diluted such that 75 μL of this culture in Mueller-Hinton Broth results in a starting bacterial concentration of 5×10^5 CFU/mL when added to the dilution plates. The plates are incubated for 16-20 hours at 37° C. The MIC values are read visually as the lowest concentration well with no bacterial growth.

A. baumannii ATCC 19606 = test: Broth microdilution MIC, A. baumannii ATCC 19606; assay type: cell-based; settings: Acinetobacter baumannii, ATCC19606, read-out: MIC A. baumannii ATCC 19606
Summary of the method: as §1

SMILES	MIC (E. coli ATCC 25922)	MIC (E. coli AG100)	MIC (E. coli 901C)	MIC (E. coli AG100A)	MIC (E. coli D22)	MIC (K. pneumoniae SI-117)	MIC (K. pneumoniae UMM)	MIC [1]	MIC (P. aeruginosa ATCC 35151)	MIC (K. pneumoniae 848844)	MIC (P. aeruginosa ATCC 27853)	MIC (A. baumannii ATCC 19606)
CNCCN1CCN(C(=O)N[C@@H](C(=O)N[C@H]2Cc3ccc(F)c(C(=O)O)c3OB2O)c2ccc(O)c(O)c2Cl)C(=O)C1=O [Example 242, (R)-3-((R)-2-(2-chloro-3,4-dihydroxyphenyl)-2-(4-(2-(methylamino)ethyl)-2,3-dioxopiperazine-1-carboxamido)acetamido)-7-fluoro-2-hydroxy-3,4-dihydro-2H-benzo[e][1,2]oxaborinine-8-carboxylic acid]	8 to 16 µg/mL	0.5 to 1 µg/mL	0.5 to 1 µg/mL	0.5 to 1 µg/mL	0.5 to 1 µg/mL	2 to 4 µg/mL	0.5 to 1 µg/mL	< 0.25 µg/mL	< 0.25 µg/mL	0.5 to 1 µg/mL	0.5 to 1 µg/mL	0.5 to 1 µg/mL
CC(=O)NCCN1CCN(C(=O)NC(C(=O)N[C@H]2Cc3ccc(F)c(C(=O)O)c3OB2O)c2ccc(O)c(O)c2Cl)C(=O)C1=O (stereo partly drawn) [Example 243, (3R)-3-(2-(4-(2-acetamidoethyl)-2,3-dioxopiperazine-1-carboxamido)-2-(2-chloro-3,4-dihydroxyphenyl)acetamido)-7-fluoro-2-hydroxy-3,4-dihydro-2H-benzo[e][1,2]oxaborinine-8-carboxylic acid]	8 to 16 µg/mL	2 to 4 µg/mL	0.5 to 1 µg/mL	0.5 to 1 µg/mL	2 to 4 µg/mL	2 to 4 µg/mL	2 to 4 µg/mL	< 0.25 µg/mL	< 0.25 µg/mL	2 to 4 µg/mL	< 0.25 µg/mL	0.5 to 1 µg/mL
NS(=O)(=O)NCCN1CCN(C(=O)NC(C(=O)N[C@H]2Cc3ccc(F)c(C(=O)O)c3OB2O)c2ccc(O)c(O)c2Cl)C(=O)C1=O (stereo partly drawn) [Example 244, (3R)-3-(2-(2-chloro-3,4-dihydroxyphenyl)-2-(2,3-dioxo-4-(2-(sulfamoylamino)ethyl)piperazine-1-carboxamido)acetamido)-7-fluoro-2-hydroxy-3,4-dihydro-2H-benzo[e][1,2]oxaborinine-8-carboxylic acid]	8 to 16 µg/mL	2 to 4 µg/mL	0.5 to 1 µg/mL	0.5 to 1 µg/mL	0.5 to 1 µg/mL	2 to 4 µg/mL	0.5 to 1 µg/mL	< 0.25 µg/mL	< 0.25 µg/mL	2 to 4 µg/mL	< 0.25 µg/mL	< 0.25 µg/mL
CCN1CC(C)(C)N(C(=O)NC(C(=O)N[C@H]2Cc3cccc(C(=O)O)c3OB2O)c2ncc(O)cc2F)C(=O)C1=O (stereo partly drawn) [Example 245, (3R)-3-(2-(4-ethyl-2,2-dimethyl-5,6-dioxopiperazine-1-carboxamido)-2-(3-fluoro-5-hydroxypyridin-2-yl)acetamido)-2-hydroxy-3,4-dihydro-2H-benzo[e][1,2]oxaborinine-8-carboxylic acid]	> 128 µg/mL	> 128 µg/mL	8 to 16 µg/mL	32 to 64 µg/mL	> 128 µg/mL	> 128 µg/mL	> 128 µg/mL	> 128 µg/mL	32 to 64 µg/mL	> 128 µg/mL	> 128 µg/mL	> 128 µg/mL
